Data published in article PMC7777204, “Locking mixed-lineage kinase domain-like protein in its auto-inhibited state prevents necroptosis” (Proceedings of the National Academy of Sciences of the …, 2020).

Columns and labels:
U937 cells [1] = test: U937 apoptosis assay; type: cell-based; conditions: Homo sapiens, U-937, 100 ng/mL huTNFα plus 3 µM NSA, read-out: U937 APOP IC50
Description: (§1) MLKL antagonists were also evaluated in a necroptosis assay with U937 cells ([26]) (ATCC catalog no. CRL-1593.2). The assay procedure with U937 cells was as described for the Jurakt FADD^−/− necroptosis assay with the following modifications: 8,000 cells were seeded per well, and, in addition to the recombinant huTNFα, cells were also incubated in the presence of 10 µM (f.c.) carbobenzoxy-valyl-alanyl-aspartyl-[O-methyl]-fluoromethylketone (zVAD-fmk) (Enzo Life Sciences catalog no. ALX-260-020). Low controls (0% CTL) were defined as cells treated with 100 ng/mL recombinant huTNFα plus 10 µM zVAD-fmk.
Furthermore, MLKL antagonists were tested in a U937 apoptosis assay in the presence of 3 µM (f.c.) NSA (Tocris catalog no. 5025) and 100 ng/mL (f.c.) recombinant huTNFα in the same way as described for the U937 necroptosis assay. Low controls (0% CTL) were defined as cells treated with 100 ng/mL recombinant huTNFα plus 3 µM NSA.
(§2) All cellular assays were done for Cpd 1, Cpd 2, Cpd 3, Cpd 4, and Cpd 5 in duplicate and in quadruplet for NSA.

U937 cells [2] = test: U937 cytotox assay; type: cell-based; conditions: Homo sapiens, U-937, without huTNFα and zVAD-fmk, read-out: U937 TOX IC50
Description: as §1
MLKL antagonists were tested in cytotox assays by using Jurkat FADD^−/− and U937 cells according to the assay procedures described for the necroptosis assays, but without treatment with recombinant huTNFα and/or zVAD-fmk. High controls (100% CTL, no effect) were defined as cells treated with DMSO, and low controls (0% CTL) were defined as medium without cells (0% CTL, maximal effect).
as §2

[3] = molecular target: T1, human MLKL executioner domain (WT) (Homo sapiens, UniProt Q8NB16); test: Functional NMR assay (detachment of α-helix 6), WT; type: biochemical; conditions: WT
T1 construct: 80 µM MLKL N-terminal executioner domain (residues 1 to 154) was used; GST (thrombin cleavage site) (cleaved yes)
T1 sequence (Q8NB16 1-154): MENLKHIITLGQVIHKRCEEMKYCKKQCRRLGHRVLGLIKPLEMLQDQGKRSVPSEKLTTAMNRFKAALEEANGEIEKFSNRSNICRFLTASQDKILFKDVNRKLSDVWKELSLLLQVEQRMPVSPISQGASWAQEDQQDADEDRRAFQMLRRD
From the text: To test the significance of the additional interaction between α-helix 6 and the four-helix bundle provided by the xanthine compounds stacking to the phenyl ring of Phe148, we used a described functional NMR assay ([12]). Binding of phytic acid (IP6) and the detergent β-D-nonylmaltoside (NM) led to the detachment of α-helix 6, which can be monitored in ^1H,^15N-correlation spectra by the altered chemical shift of the Hε1–Nε1 correlation of Trp133 and the backbone N–H correlation of Ala141 ([12]). […] Adding 12 mM NM or 500 µM IP6 led to the appearance of a second very weak peak reporting on the detached α-helix 6 with a population of the activated state (pact) of 1% and 4%, respectively (Fig. 3). […] Combining 12 mM NM and 500 µM IP6 induced a dramatic increase of the population of the detached state (pact 86%). […] To further validate the importance of the π–π stacking interaction between the xanthine and Phe148 in α-helix 6, we carried out the functional NMR assay with the F148A-mutated variant of MLKL. The removal of the phenyl group induced significant CSPs localized in close proximity to the mutation site, due to the removal of ring currents and, therefore, strong electronic changes. […] MLKL F148A was more sensitive to the addition of 12 mM NM, 500 µM IP6, or the combination thereof. In the spectra in the presence of NM and the combination of NM and IP6, a third Trp133 peak appeared, most likely reporting on a state similar to the active state. […] Thus, the stacking interaction of the xanthine core to Phe148 is vital for the inhibitory activity of these MLKL inhibitors.
Fig. 3. (A and B) The region of the NMR ^1H,^15N-correlation spectra of the MLKL executioner domain (protein concentration: 80 µM) containing the cross-peaks of Trp133 Nε1–Hε1 in the auto-inhibited state where α-helix 6 is attached to the four-helix bundle (inact. state) and in the active, detached state (act. state) are shown. The unliganded state is depicted in black, with 12 mM NM in cyan; 500 µM IP6 in orange; 500 µM Cpd 3 in blue; 12 mM NM and 500 µM IP6 in red; and 12 mM NM, 500 µM IP6, and 500 µM Cpd 3 in green. The spectra depicted in A are measured with the WT protein and in B with the F148A variant. […] Dark gray bars correspond to the WT, while light gray bars correspond to the F148A variant. The asterisk means that no active conformation could be detected. Double asterisks indicate data not determined.
For the functional NMR assay ^1H,^15N-correlation spectra were recorded on a Bruker Avance III HD 600-MHz NMR spectrometer equipped with a cryogenic QCI probe in 2.5-mm NMR tubes at 298 K. Spectra were recorded with 64 complex points in the indirect dimension, 96 scans, and an interscan delay of 2 s. For the samples, 80 µM MLKL N-terminal executioner domain (residues 1 to 154) was used in a 20 mM sodium phosphate buffer at pH 7.5 containing 150 mM sodium chloride and 1 mM TCEP. For the different conditions, either 500 µM IP6, 12 mM NM, or a combination of the two were used. The xanthine compounds were tested at 500 µM, while NSA, due to limited solubility, was tested only at 200 µM, which is sufficient to saturate MLKL. Spectra were analyzed, and peaks were integrated in CcpNnmr analysis ([39]).

Cn1c(=O)c2c(nc(S(C)(=O)=O)n2C)n(CC#Cc2cccc(O)c2)c1=O [Cpd 3]
IC50 (U937 cells [1]): > 100 µM | IC50 (U937 cells [2]): 25.5 µM | Population of the activated state (pact), α-helix 6 detached ([3]; 80 µM protein, 12 mM NM + 500 µM IP6 + 500 µM compound, without compound pact 86%): 19% | Induction of the active state by compound alone ([3]; compound alone (Cpd 3 500 µM, NSA 200 µM), no NM/IP6): did not induce the active state
